One data set relates to A549 cells. Description: MTS cytotoxicity assay (CellTiter 96). The format is cell-based. Particulars: ~24 hours incubation. On the procedure:
(§1) High throughput cell viability assays were completed using standard procedures. Cytotoxicity of polymers was determined by the CellTiter 96® Aqueous Cell Proliferation Assay (Promega). A549 and HUVEC cells were cultured and incubated with polymers for ˜24 hours. Next, the media was removed and replaced with a mixture of 100 μL fresh culture media and 20 μL MTS reagent solution and cells were incubated for 3 hours at 37° C. in a 5% CO2 incubator. The absorbance of each well was then measured at 490 nm using a microtiter plate reader (SpectraMax, M25, Molecular Devices Corp.) to determine relative cell viability.

The test system of a further data set is HUVEC cells. The data set is described as follows: MTS cytotoxicity assay (CellTiter 96). The format is cell-based. Particulars: ~24 hours incubation. On the procedure:
as §1
A general note: Tetrazolium dyes change colour on reduction, which living cells bring about.

The conditions of data set [1]: cited from earlier work.

For `CC(=O)N(O)CCCCCNC(=O)CCC(=O)N(O)CCCCCNC(=O)CCC(=O)N(O)CCCCCN` [DFO, desferoxamine], the “toxic effect on A549 cells” value with A549 cells is “no toxic effect”. Besides, the “toxic effect on HUVEC cells” value in the data set with HUVEC cells is on record as “considerably toxic even at concentration as low as 10 μg/mL”.
As to `O=C(N[C@H]1COC(=O)[C@@H](NC(=O)c2cccc(O)c2O)COC(=O)[C@@H](NC(=O)c2cccc(O)c2O)COC1=O)c1cccc(O)c1O` [Enterobactin], the “relative iron binding constant” value in data set [1] (Fe(III)) is on record as 35.5. Further, in data set [1] (iron), the “Log K” value is listed as 52.

The values are drawn from US10039836B2, “Polyamine-dihydroxybenzoic acid conjugate hydrogels as iron chelators” (THE UNIVERSITY OF KANSAS, priority 2010, dated 2018).
